From paper PMC5341858, “Molecular regulation of apoptotic machinery and lipid metabolism by mTORC1/mTORC2 dual inhibitors in preclinical models of HER2+/PIK3CAmut breast cancer” (Oncotarget, 2016)

Key:
MDA-MB-231 cells = test: Glucose-to-lipid conversion (de novo lipid synthesis); type: cell-based; settings: similar treatment, 4 h saturating dose
Method: (§1) Cellular glucose-to-lipid conversion was measured as described. Briefly, cells were pretreated with inhibitors for 2 h, incubated for 2 h in medium containing 2 μCi/mL D-[1-14C] glucose (PerkinElmer, NEC043X001MC). Total lipids were extracted twice with 300 μL hexane:isopropanol (3:2; vol:vol). Cell debris was carefully removed by centrifugation at 14,000 rpm for 5 min using a microcentrifuge. Radioactive lipids were dried, redissolved with 100 μL of chloroform and determined by liquid scintillation counting. A duplicate assay plate without radioactive glucose label was used to count the number of cells per treatment. Glucose to total lipid conversion rate is the radioactive counts from the extracted lipid normalized by the number of cells per hour of ^14C-glucose incubation. For acetyl-CoA assay, cells grown in 96-well plates were washed and lysed in 40 μL/well using lysis buffer. Cell lysates were transferred to V-bottom plates, cleared by centrifugation. 30 μL of the cleared cell lysates were subjected to acetyl-CoA measurement using an acetyl-CoA assay kit (Sigma, MAK-039) following manufacturer's assay manual. Duplicate assay plates were used to count the number of cells per treatment for normalization in determining cellular acetyl-CoA levels.

MDA-MB-453 cells = test: as above; type: cell-based; settings: 4 h, saturating dose (5 μM MTI-31, 1 μM rapamycin)
Method: as §1

[1] = tested on: HER2-/PIK3CAwt HCC1806 breast tumor model; test: In vivo antitumor efficacy, oral once daily; parameters: species or system mice; settings: HCC1806 tumors; even at the highest 40 mg/kg oral qd
Method: Animal studies were performed under protocols approved by Institutional Animal Care and Use Committee (IACUC) of Fudan University. Balbc female nude mice bearing MDA-MB-453, HCC1806 or 786-O tumors were staged at initial tumor volume of 150-200 mm^3 and randomized into treatment groups (n=/>8). […] Lapatinib and Sunitinib were formulated in 0.5% hydroxypropyl methyl cellulose (HPMC)-0.2% tween-80 as homogeneous suspension. All test agents were prepared twice weekly. Mice were dosed orally once daily (qd). Tumor growth inhibition rate (TGI) was calculated: TGI=[1-(Vt-Vi)/(Vc-Vi)]×100, where Vt: tumor volume of drug treated group, Vc: tumor volume of vehicle control group, Vi: initial tumor volume at staging. For biomarker studies, frozen tumors were made lysates and immunoblotted as previously described. For detecting apoptosis, tumors were excised, fixed in 4% formalin for 24 h and embedded in paraffin. […] The slides were blocked in Tris buffered saline with 5% BSA-0.3 M glycine and reacted with anti-CPT1A (Proteintech #15184-1-AP) or anti-P-ACL S455 (Abcam #59297) and detected with peroxidase-conjugated secondary antibody (Jackson # 111-035-003). […] Staining levels were analyzed on the basis of mean optical density quantified by software image pro plus 6.0.

ULK2 = target: T1, ULK2 (Homo sapiens, UniProt Q8IYT8); test: KINOMEscan binding assay; settings: 1000 nM, percent control relative to vehicle
T1 construct: purchased DiscoveRx KINOMEscan
Excerpt: (§2) IC50 values were generated using Graphpad PRISM 5 software.

CDK9 = target: T2, CDK9 (Homo sapiens, UniProt P50750); test: KINOMEscan binding assay; settings: 1000 nM, percent control relative to vehicle
T2 construct: purchased DiscoveRx KINOMEscan
Excerpt: as §2

AURKB = target: T3, AURKB (Homo sapiens, UniProt Q96GD4); test: KINOMEscan binding assay; settings: 1000 nM, percent control relative to vehicle
T3 construct: purchased DiscoveRx KINOMEscan
Excerpt: as §2

PAK4 = target: T4, PAK4 (Homo sapiens, UniProt O96013); test: KINOMEscan binding assay; settings: 1000 nM, percent control relative to vehicle
T4 construct: purchased DiscoveRx KINOMEscan
Excerpt: as §2

AKT1 = target: T5, AKT1 (Homo sapiens, UniProt P31749); test: KINOMEscan binding assay; settings: 1000 nM, percent control relative to vehicle
T5 construct: purchased DiscoveRx KINOMEscan
Excerpt: as §2

CSNK1G2 = target: T6, CSNK1G2 (Homo sapiens, UniProt P78368); test: KINOMEscan binding assay; settings: 1000 nM, percent control relative to vehicle
T6 construct: purchased DiscoveRx KINOMEscan
Excerpt: as §2

[2] = target: T7, ABL1 (E255K)- phosphorylated (Homo sapiens, UniProt P00519, E255K); test: KINOMEscan binding assay; settings: 1000 nM, percent control relative to vehicle
T7 construct: purchased DiscoveRx KINOMEscan
Excerpt: as §2

CDK2 = target: T8, CDK2 (Homo sapiens, UniProt P24941); test: KINOMEscan binding assay; settings: 1000 nM, percent control relative to vehicle
T8 construct: purchased DiscoveRx KINOMEscan
Excerpt: as §2

CSNK1D = target: T9, CSNK1D (Homo sapiens, UniProt P48730); test: KINOMEscan binding assay; settings: 1000 nM, percent control relative to vehicle
T9 construct: purchased DiscoveRx KINOMEscan
Excerpt: as §2

ALK = target: T10, ALK (Homo sapiens, UniProt Q9UM73); test: KINOMEscan binding assay; settings: 1000 nM, percent control relative to vehicle
T10 construct: purchased DiscoveRx KINOMEscan
Excerpt: as §2

PDPK1 = target: T11, PDPK1 (Homo sapiens, UniProt O15530); test: KINOMEscan binding assay; settings: 1000 nM, percent control relative to vehicle
T11 construct: purchased DiscoveRx KINOMEscan
Excerpt: as §2

MEK1 = target: T12, MEK1 (Homo sapiens, UniProt Q02750); test: KINOMEscan binding assay; settings: 1000 nM, percent control relative to vehicle
T12 construct: purchased DiscoveRx KINOMEscan
Excerpt: as §2

JNK1 = target: T13, JNK1 (Homo sapiens, UniProt P45983); test: KINOMEscan binding assay; settings: 1000 nM, percent control relative to vehicle
T13 construct: purchased DiscoveRx KINOMEscan
Excerpt: as §2

ROCK2 = target: T14, ROCK2 (Homo sapiens, UniProt O75116); test: KINOMEscan binding assay; settings: 1000 nM, percent control relative to vehicle
T14 construct: purchased DiscoveRx KINOMEscan
Excerpt: as §2

ERK1 = target: T15, ERK1 (Homo sapiens, UniProt P27361); test: KINOMEscan binding assay; settings: 1000 nM, percent control relative to vehicle
T15 construct: purchased DiscoveRx KINOMEscan
Excerpt: as §2

ABL1-phosphorylated = target: T16, ABL1-phosphorylated (Homo sapiens, UniProt P00519); test: KINOMEscan binding assay; settings: 1000 nM, percent control relative to vehicle
T16 construct: purchased DiscoveRx KINOMEscan
Excerpt: as §2

PIM3 = target: T17, PIM3 (Homo sapiens, UniProt Q86V86); test: KINOMEscan binding assay; settings: 1000 nM, percent control relative to vehicle
T17 construct: purchased DiscoveRx KINOMEscan
Excerpt: as §2

EGFR (L858R) = target: T18, EGFR (L858R) (Homo sapiens, UniProt P00533, L858R); test: KINOMEscan binding assay; settings: 1000 nM, percent control relative to vehicle
T18 construct: purchased DiscoveRx KINOMEscan
Excerpt: as §2

FGFR3 = target: T19, FGFR3 (Homo sapiens, UniProt P22607); test: KINOMEscan binding assay; settings: 1000 nM, percent control relative to vehicle
T19 construct: purchased DiscoveRx KINOMEscan
Excerpt: as §2

PIK3CG = PIK3CG (Homo sapiens, UniProt P48736); test: KINOMEscan binding assay
Excerpt: as §2

KIT(D816V) = target: T20, KIT(D816V) (Homo sapiens, UniProt P10721, D816V); test: KINOMEscan binding assay; settings: 1000 nM, percent control relative to vehicle
T20 construct: purchased DiscoveRx KINOMEscan
Excerpt: as §2

PIM2 = target: T21, PIM2 (Homo sapiens, UniProt Q9P1W9); test: KINOMEscan binding assay; settings: 1000 nM, percent control relative to vehicle
T21 construct: purchased DiscoveRx KINOMEscan
Excerpt: as §2

[3] = tested on: MDA-MB-453 and 786-O tumors; test: In vivo antitumor efficacy, oral once daily
Method: Animal studies were performed under protocols approved by Institutional Animal Care and Use Committee (IACUC) of Fudan University. Balbc female nude mice bearing MDA-MB-453, HCC1806 or 786-O tumors were staged at initial tumor volume of 150-200 mm^3 and randomized into treatment groups (n=/>8). […] Lapatinib and Sunitinib were formulated in 0.5% hydroxypropyl methyl cellulose (HPMC)-0.2% tween-80 as homogeneous suspension. All test agents were prepared twice weekly. Mice were dosed orally once daily (qd). Tumor growth inhibition rate (TGI) was calculated: TGI=[1-(Vt-Vi)/(Vc-Vi)]×100, where Vt: tumor volume of drug treated group, Vc: tumor volume of vehicle control group, Vi: initial tumor volume at staging. For biomarker studies, frozen tumors were made lysates and immunoblotted as previously described. For detecting apoptosis, tumors were excised, fixed in 4% formalin for 24 h and embedded in paraffin. Slides were processed for terminal deoxynuleotidyl transferase dUTP nick end labeling (TUNEL) using an assay kit (KeyGen Biotech, KGA7061) following vendor's instruction manual. For IHC staining, tumor slides described above were deparaffinized, rehydrated and permeablized with 1% Triton X-100. Antigens were retrieved with Tris/EDTA (pH 9.0) under microwave heating for 20 min. The slides were blocked in Tris buffered saline with 5% BSA-0.3 M glycine and reacted with anti-CPT1A (Proteintech #15184-1-AP) or anti-P-ACL S455 (Abcam #59297) and detected with peroxidase-conjugated secondary antibody (Jackson # 111-035-003). Images were acquired using Leica microscope (model DMI4000D). Staining levels were analyzed on the basis of mean optical density quantified by software image pro plus 6.0.

Sequence of PIK3CG (P48736 whole entry): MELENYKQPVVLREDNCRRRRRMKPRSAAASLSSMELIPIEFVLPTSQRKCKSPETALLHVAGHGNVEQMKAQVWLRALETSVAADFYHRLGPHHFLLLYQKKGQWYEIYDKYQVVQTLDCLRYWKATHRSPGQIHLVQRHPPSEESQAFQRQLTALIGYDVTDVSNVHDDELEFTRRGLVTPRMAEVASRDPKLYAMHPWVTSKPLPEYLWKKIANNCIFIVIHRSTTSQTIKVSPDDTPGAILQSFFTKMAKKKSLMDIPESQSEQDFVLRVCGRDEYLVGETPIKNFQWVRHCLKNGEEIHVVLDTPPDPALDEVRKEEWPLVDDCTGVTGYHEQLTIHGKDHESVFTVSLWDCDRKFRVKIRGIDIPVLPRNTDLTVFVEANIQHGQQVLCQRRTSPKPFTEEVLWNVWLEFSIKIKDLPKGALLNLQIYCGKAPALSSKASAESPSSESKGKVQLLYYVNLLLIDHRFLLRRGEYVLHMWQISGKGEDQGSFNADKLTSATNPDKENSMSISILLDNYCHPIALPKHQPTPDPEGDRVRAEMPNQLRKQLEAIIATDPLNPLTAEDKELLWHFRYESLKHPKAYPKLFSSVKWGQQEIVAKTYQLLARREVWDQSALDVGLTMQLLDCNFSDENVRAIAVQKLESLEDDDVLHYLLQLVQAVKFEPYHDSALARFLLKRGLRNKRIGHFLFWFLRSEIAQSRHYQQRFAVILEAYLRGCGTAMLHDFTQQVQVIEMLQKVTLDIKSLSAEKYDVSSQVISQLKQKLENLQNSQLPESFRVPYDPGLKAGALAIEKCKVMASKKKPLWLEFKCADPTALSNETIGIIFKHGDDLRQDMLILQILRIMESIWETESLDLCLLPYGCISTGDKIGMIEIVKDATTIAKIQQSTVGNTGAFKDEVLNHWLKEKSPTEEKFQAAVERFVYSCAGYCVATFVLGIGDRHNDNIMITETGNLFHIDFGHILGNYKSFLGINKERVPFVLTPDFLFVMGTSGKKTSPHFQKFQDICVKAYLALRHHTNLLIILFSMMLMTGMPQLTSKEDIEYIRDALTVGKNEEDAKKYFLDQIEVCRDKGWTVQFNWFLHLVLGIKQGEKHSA
T1 sequence (Q8IYT8 whole entry): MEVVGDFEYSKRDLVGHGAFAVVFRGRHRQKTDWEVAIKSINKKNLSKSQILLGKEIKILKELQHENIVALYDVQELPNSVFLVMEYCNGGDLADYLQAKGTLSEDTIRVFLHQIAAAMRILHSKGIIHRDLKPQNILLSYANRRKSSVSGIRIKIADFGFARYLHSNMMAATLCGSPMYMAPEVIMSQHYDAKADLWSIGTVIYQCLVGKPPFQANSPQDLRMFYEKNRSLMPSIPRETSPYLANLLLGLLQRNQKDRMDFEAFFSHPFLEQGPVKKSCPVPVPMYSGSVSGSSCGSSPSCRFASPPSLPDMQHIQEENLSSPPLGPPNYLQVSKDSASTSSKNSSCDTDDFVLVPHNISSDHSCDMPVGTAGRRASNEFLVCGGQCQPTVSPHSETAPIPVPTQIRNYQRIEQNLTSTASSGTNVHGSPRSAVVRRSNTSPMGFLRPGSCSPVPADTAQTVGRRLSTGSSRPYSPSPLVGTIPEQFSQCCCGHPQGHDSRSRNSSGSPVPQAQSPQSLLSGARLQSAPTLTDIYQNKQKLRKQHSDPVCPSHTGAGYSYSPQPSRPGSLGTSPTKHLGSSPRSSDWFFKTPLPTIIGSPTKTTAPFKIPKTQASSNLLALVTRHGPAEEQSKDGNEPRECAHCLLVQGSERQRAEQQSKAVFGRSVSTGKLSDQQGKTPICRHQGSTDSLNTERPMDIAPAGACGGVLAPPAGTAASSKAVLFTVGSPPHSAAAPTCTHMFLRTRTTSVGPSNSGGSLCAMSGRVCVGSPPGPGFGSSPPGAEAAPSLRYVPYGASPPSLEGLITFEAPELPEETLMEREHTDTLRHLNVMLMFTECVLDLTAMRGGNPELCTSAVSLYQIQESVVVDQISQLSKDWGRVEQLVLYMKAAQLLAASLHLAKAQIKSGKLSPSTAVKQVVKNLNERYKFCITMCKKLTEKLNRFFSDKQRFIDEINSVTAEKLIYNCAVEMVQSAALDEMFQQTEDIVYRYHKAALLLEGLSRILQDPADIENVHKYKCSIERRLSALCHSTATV
T11 sequence (O15530 whole entry): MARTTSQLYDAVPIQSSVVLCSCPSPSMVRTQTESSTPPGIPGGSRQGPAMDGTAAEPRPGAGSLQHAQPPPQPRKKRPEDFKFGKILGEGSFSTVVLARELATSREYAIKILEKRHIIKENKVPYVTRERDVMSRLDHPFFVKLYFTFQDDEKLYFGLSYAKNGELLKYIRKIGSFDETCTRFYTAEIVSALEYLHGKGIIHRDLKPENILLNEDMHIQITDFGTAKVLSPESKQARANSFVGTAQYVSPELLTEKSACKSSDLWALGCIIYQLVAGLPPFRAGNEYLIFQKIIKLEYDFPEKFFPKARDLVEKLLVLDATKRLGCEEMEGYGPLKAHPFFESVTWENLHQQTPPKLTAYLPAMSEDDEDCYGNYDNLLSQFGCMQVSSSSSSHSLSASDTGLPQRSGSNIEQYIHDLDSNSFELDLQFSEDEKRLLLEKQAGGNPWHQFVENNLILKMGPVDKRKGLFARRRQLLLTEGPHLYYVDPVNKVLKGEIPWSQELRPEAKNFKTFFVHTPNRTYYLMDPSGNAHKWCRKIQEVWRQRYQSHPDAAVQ
T13 sequence (P45983 whole entry): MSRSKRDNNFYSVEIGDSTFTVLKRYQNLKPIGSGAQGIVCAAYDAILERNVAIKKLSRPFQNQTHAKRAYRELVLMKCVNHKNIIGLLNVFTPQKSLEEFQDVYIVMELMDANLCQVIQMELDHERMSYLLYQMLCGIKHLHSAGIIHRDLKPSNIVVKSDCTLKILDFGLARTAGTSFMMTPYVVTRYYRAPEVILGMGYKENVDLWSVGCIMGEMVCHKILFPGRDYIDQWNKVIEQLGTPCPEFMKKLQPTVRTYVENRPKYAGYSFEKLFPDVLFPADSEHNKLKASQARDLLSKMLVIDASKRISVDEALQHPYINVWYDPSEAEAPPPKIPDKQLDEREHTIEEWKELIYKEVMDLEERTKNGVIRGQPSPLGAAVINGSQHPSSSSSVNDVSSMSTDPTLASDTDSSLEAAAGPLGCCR
T6 sequence (P78368 whole entry): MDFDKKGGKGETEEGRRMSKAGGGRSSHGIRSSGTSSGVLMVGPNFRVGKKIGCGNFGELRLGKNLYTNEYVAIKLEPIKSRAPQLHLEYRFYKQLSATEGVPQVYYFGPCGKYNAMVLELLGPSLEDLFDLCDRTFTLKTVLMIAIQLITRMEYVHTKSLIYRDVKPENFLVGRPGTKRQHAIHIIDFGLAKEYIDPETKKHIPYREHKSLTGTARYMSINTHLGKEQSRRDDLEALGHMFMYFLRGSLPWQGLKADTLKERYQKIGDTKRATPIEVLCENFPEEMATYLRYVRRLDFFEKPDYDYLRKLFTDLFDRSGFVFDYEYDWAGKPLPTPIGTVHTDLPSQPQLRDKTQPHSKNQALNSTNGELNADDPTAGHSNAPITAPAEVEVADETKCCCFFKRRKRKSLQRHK
T12 sequence (Q02750 whole entry): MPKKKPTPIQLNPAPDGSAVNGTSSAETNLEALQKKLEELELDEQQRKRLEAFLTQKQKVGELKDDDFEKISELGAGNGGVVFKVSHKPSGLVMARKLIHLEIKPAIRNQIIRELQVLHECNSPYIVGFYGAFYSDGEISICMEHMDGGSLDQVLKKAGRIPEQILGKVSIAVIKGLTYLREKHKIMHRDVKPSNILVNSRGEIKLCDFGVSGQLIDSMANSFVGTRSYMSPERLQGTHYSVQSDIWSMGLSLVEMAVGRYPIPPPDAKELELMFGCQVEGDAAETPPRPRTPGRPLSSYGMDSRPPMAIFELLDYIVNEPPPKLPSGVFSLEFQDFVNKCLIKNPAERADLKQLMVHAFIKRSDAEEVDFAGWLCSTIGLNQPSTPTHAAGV
T15 sequence (P27361 whole entry): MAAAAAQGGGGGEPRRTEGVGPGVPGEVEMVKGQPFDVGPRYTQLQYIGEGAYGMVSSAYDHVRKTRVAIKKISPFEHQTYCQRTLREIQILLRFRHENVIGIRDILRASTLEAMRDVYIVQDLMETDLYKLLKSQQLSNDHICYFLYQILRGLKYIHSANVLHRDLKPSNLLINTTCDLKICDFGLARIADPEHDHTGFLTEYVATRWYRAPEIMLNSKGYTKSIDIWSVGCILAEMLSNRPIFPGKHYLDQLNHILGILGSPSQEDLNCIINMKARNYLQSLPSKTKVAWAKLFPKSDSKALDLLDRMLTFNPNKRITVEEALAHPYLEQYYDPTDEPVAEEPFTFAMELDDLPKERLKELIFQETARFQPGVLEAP
T3 sequence (Q96GD4 whole entry): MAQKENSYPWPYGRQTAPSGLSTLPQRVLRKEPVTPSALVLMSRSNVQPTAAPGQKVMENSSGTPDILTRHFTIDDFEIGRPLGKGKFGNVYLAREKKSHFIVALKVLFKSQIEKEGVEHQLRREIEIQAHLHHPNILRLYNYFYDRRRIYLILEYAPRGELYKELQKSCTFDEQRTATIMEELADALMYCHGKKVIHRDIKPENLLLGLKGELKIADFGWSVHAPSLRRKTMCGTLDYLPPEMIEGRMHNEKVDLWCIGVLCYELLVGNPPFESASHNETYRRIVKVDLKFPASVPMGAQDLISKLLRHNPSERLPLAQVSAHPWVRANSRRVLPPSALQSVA

Compound: CNC(=O)c1cccc(-c2ccc3c(N4C5CCC4COC5)nc(N4CCOC[C@@H]4C)nc3n2)c1 [MTI-31]
- effect on de novo lipid synthesis (MDA-MB-231 cells): did not significantly reduce lipid synthesis
- suppression of de novo lipid synthesis (14C-glucose-to-lipid conversion rate) (MDA-MB-453 cells): 70%
- antitumor efficacy [1]: limited efficacy
- % Control (ULK2): 80%
- % Control (CDK9): 90%
- % Control (AURKB): 80%
- % Control (PAK4): 100%
- % Control (AKT1): 100%
- % Control (CSNK1G2): 100%
- % Control [2]: 78%
- % Control (CDK2): 84%
- % Control (CSNK1D): 80%
- % Control (ALK): 78%
- % Control (PDPK1): 97%
- % Control (MEK1): 73%
- % Control (JNK1): 81%
- % Control (ROCK2): 73%
- % Control (ERK1): 100%
- % Control (ABL1-phosphorylated): 70%
- % Control (PIM3): 100%
- % Control (EGFR (L858R)): 100%
- % Control (FGFR3): 92%
- Kd (PIK3CG): > 1 µM
- % Control (PIK3CG; 1000 nM, percent control relative to vehicle): 100%
- % Control (KIT(D816V)): 97%
- % Control (PIM2): 92%
- tumor growth inhibition (TGI) at MED ([3]; 5 mg/kg oral qd, p<0.01): > 50%
- body weight loss at MTD ([3]; 40 mg/kg oral qd, without mortality): 7-15%
- tumor response, large size tumors ([3]; nude mice bearing large size MDA-MB-453 tumors, 40 mg/kg qd): rapid and dramatic tumor regression
- minimum efficacious dose (MED) ([3]; oral, qd, nude mice, MDA-MB-453 and 786-O models): 5 mg/kg
- maximum tolerated dose (MTD) ([3]; oral, qd, nude mice, without mortality): 40 mg/kg
